Test results: article PMC6410202, “Dual Action of the PN159/KLAL/MAP Peptide: Increase of Drug Penetration across Caco-2 Intestinal Barrier Model by Modulation of Tight Junctions and Plasma Membrane Permeability” (Pharmaceutics, 2019)

Assays:
[1] = system: respiratory epithelial tissue (EpiAirway model); design: method as in PMID 16625659; details: 1-h treatment; cited from earlier work
Caco-2 cells [2] = experiment: Impedance measurement (RTCA), Caco-2 cells; format: cell-based; details: PN159 1-100 μM, 1-h or one-day treatment
Method: Kinetics of epithelial cell reaction to PN159 peptide treatment was monitored by impedance measurement at 10 kHz (RTCA-SP instrument, ACEA Biosciences, San Diego, CA, USA). Impedance measurement is non-invasive, label-free and real time, and linearly correlates with adherence, growth, number and viability of cells. For background measurements 50 μL cell culture medium was added to the wells, then cells were seeded at a density of 6 × 10^3 cells/well to the coated 96-well plates with integrated gold electrodes (E-plate 96, ACEA Biosciences). Cells were cultured for 5–7 days in a CO2 incubator at 37 °C and monitored every 10 min until the end of experiments. Cells were treated with PN159 peptide solutions at 1, 3, 10, 30 and 100 μM concentrations at the beginning of the plateau phase of growth and the effects were followed for 1-h or 24 h. To measure cell recovery, peptide solutions were changed to culture medium and the impedance was monitored for one week. Culture medium was changed every 2 days. Caco-2 cells were also treated with the three selected CPPs, Pep-1, R8 and φ-peptide, at 100 μM concentrations at the beginning of the plateau phase of cell growth for 24-h. Triton X-100 detergent (1 mg/mL) was used as a reference compound to induce cell death. Cell index was defined as Rn-Rb at each time point of measurement, where Rn is the cell-electrode impedance of the well when it contains cells and Rb is the background impedance of the well with the medium alone.

Caco-2 cells [3] = experiment: Transmission electron microscopy of tight junctions; format: cell-based, human; details: 30 min
Method: Cells grown on culture inserts were treated with 10 μM PN159 peptide for 30 min and fixed immediately after treatment or after a 1-day recovery. Cells were briefly washed with phosphate-buffered saline (PBS) and fixed with 3% paraformaldehyde containing 0.5% glutaraldehyde in cacodylate buffer (pH 7.4) for 30 min at 4 °C. After washing with the buffer several times, cells were postfixed in 1% OsO4 for 20 min. Following a rinse with distilled water, the cells were block stained with 1% uranyl acetate in 50% ethanol for 20 min, dehydrated in graded ethanol and after the last step of dehydration inserts were placed in the 1:1 mixture of ethanol and Taab 812 (Taab; Aldermaston, Berks, UK) for 10 min at 30°C. Finally, the membranes of the culture inserts with the cells were removed from their support and embedded in Taab 812. Polymerization was performed overnight at 60°C. Ultrathin sections were cut perpendicularly for the membrane using a Leica EM UC6 ultramicrotome (Nussloch, Germany) and picked up on formvar-coated single-slot copper grids. […] Altogether, 105 non-overlapping images from the 3 groups at the same magnification were analyzed for the presence or absence of tight junctions (control group n = 28; PN159 group n = 42; recovery group n = 35).

[4] = system: Enterobacter cloacae spp. cloacae (ATCC 13047); experiment: microbe, parasite or virus in culture; details: Muller–Hinton broth, 18 h
Method: The MIC of PN159 on the 6 sensitive and resistant ESKAPE pathogenic strains was determined in cation-adjusted Muller–Hinton broth. […] Minimum inhibitory concentrations (MICs) were determined by using a standard serial broth dilution technique. Briefly, 11-step serial dilutions were prepared in 96-well microtiter plates with three biological replicates per strain. Pathogens were inoculated into each well at a density of 5×10^5 bacteria/mL, and the plates were incubated at 37 °C. Plates were shaken at 300 rpm during incubation for 18 h. Cell growth was monitored by measuring the optical density (OD600 value, Synergy 2 microplate reader BioTek Instruments Inc, Winooski, VT, USA). […] As reference compounds we tested the antimicrobial activity of three bactericidal drugs with different modes of action.

Caco-2 cells [5] = experiment: Cellular uptake of Bodipy FL labeled PN159, confocal microscopy; format: cell-based, human; details: Bodipy FL labeled PN159, 10 µM, 5 min, claudin-4 immunostaining
Method: The Caco-2 cells were grown on glass bottomed petri dishes coated with collagen to visualize the cellular uptake of the Bodipy FL maleimide labeled (BODIPY FL N-(2-aminoethyl) maleimide, Thermo Fischer, Waltham, MA, USA) PN159 peptide. The cells were treated with peptide at concentrations of 1, 3 and 10 µM for 5 min. To stain the cell nuclei the H33342dye (1 μg/mL) was used before peptide treatment for 10 min. After peptide incubation the living cells were washed three times with Ringer–Hepes buffer supplemented with 1%fetal bovine serum (FBS) and examined immediately with a Visitron spinning disk confocal system.
In the case of the co-localization analysis the labeled PN159 peptide was used in 10 µM for 5 min. Then the cellular uptake cells were fixed and immunohistochemistry was performed for claudin-4. The samples were mounted and visualized by a Leica TCS SP5 confocal laser-scanning microscope.

Caco-2 cell layers = experiment: Penetration of marker and drug molecules across Caco-2 cell layers (Papp A-B); details: PN159 10 and 30 μM, 1-h treatment
Method: In the permeability experiments inserts with Caco-2 cell layers grown for 3 weeks were transferred to 12-well plates containing 1.5 mL Ringer–Hepes buffer in the lower (basal or acceptor) compartments. In the upper or apical compartments culture medium was replaced by 0.5 mL buffer containing peptide solutions: PN159 peptide at 1, 3, 10 and 30 μM concentrations and CPPs at 100 μM concentration. […] The incubation with permeability markers in the presence of PN159 peptide lasted for 30 min. In case of CPPs the incubation time with fluorescein was 1-h. Samples were collected from both compartments and the concentrations of the marker molecules were determined by a fluorescence multi-well plate reader (Fluostar Optima; excitation wavelength: 485 nm, emission wavelength: 535 nm in the case of fluorescein and excitation wavelength: 584 nm, emission wavelength: 680 nm in the case of Evans-blue labeled albumin). Fluorescein isothiocyanate (FITC)-labelled dextran marker molecules (Table 1) were used at 1 mM concentrations, and fluorescence intensities of collected samples were measured using a Fluorolog FL3-22 (Horiba Jobin Yvon, Paris, France) spectrofluorometer using 492 nm excitation wavelength, 515 nm emission wavelength, and 0.5 s integration time. Drugs were used at 10 μM concentrations and samples were measured by HPLC as described below. The apparent permeability coefficients (Papp) were calculated as described previously. Briefly, cleared volume was calculated from the concentration difference of the tracer in the basal compartments (Δ[C]B) after 30 min and apical compartments at 0 h ([C]A), the volume of the basal compartment (VB; 1.5 mL) and the surface area available for permeability (A; 1.1 cm^2).
Analytical measurements were performed on a Merck-Hitachi LaChrom HPLC system equipped with an ultraviolet (UV) and fluorescence detector (Merck, Darmstadt, Germany). All reagents used were of analytical reagent grade. […] In both cases 10μL sample was injected into the chromatographic system.
The chromatographic column was maintained at 40 °C and the 5 μL sample was injected onto the column.
The column temperature was maintained at 40 °C and a 20 μL sample was injected onto the chromatographic system. […] UV detection was set at 228 nm.

CC(C)C[C@H](NC(=O)[C@H](C)NC(=O)[C@H](CCCCN)NC(=O)[C@H](CC(C)C)NC(=O)[C@H](C)NC(=O)[C@H](CC(C)C)NC(=O)[C@H](CCCCN)NC(=O)[C@H](CC(C)C)NC(=O)[C@H](C)NC(=O)[C@H](CC(C)C)NC(=O)[C@@H](N)CCCCN)C(=O)N[C@@H](CCCCN)C(=O)N[C@@H](C)C(=O)N[C@@H](C)C(=O)N[C@@H](CC(C)C)C(=O)N[C@@H](CCCCN)C(=O)N[C@@H](CC(C)C)C(=O)N[C@@H](C)C(N)=O [PN159]
Safe concentration (MTT) [1]: up to 100 μM | Cell impedance (normalized cell index) (Caco-2 cells [2]): only the two highest peptide concentrations decreased the cell impedance | Ultrastructure of epithelial junctions (Caco-2 cells [3]; 1-day recovery after PN159 10 μM): became similar to control cells | Tight junctions by electron microscopy (Caco-2 cells [3]; PN159 10 μM): no junctions were observed | MIC [4]: 31.0 µM | Co-localization with claudin-4 (Caco-2 cells [5]): visible in the cytoplasm and also in the cell membrane at the level of intercellular junctions | Permeability enhancement for fluorescein and albumin (Caco-2 cell layers): most effective permeability enhancer activity
